Measured values from PMC8949893, “Chemical Synthesis, Pharmacokinetic Properties and Biological Effects of JM-00266, a Putative Non-Brain Penetrant Cannabinoid Receptor 1 Inverse Agonist” (International Journal of Molecular Sciences, 2022).

How the values were obtained:
mice [1] = assay: Body (rectal) temperature measurement; assay type: in vivo; conditions: for Effect on hypothermic response to ACEA: pre-treatment 20 min before ACEA 1 mg·kg−1, Rimonabant 10 mg·kg−1, JM-00266 20 mg·kg−1, t = 30 min
Experimental: Mice rectal temperature was assessed using a VT4810 controller (Vertex Technology Corp., New Taipei City, Taiwan) adapted with a mouse rectal probe. In the first experiment, the impact of anandamide (10 mg·kg^−1) on body temperature was recorded during 30 min on animals injected either 20 min earlier with vehicle or JM-00266 (20 mg·kg^−1).

mice [2] = assay: Gastro-intestinal transit (charcoal marker); assay type: in vivo
Experimental: Short-term effects of JM-00266 on gastro-intestinal transit were tested as an indicator of peripheral CB1R activity. Transit was measured by administering a non-absorbed marker (10% charcoal suspension in 5% gum arabic) as previously described.

mice [3] = assay: Food intake in 24-h food-deprived mice; assay type: in vivo; conditions: ACEA 1 mg/kg i.p.; for Cumulative 3-h food intake, co-administration with ACEA: Rimonabant 10 mg·kg−1, JM-00266 20 mg·kg−1
Experimental: For food intake experiments, mice were food-deprived for 24 h before being submitted to an i.p. injection of ACEA (1 mg·kg^−1). […] Cumulative food intake was measured every hour over a period of 3 h from refeeding.

[4] = Plasma kinetic profile after i.p., oral or intravenous administration; assay type: in vivo, mice; conditions: for Maximal drug plasma concentration: n = 4
Experimental: (§1) At 1, 2, 4 and 8 h post-administration, animals were killed by cervical dislocation and blood was collected from the vena cava into tubes containing heparin and centrifuged immediately at 6500× g for 10 min at 4 °C. For determination of tissue distribution, brain, liver and adipose tissue were collected 4 h post-gavage. Plasma and tissue samples were directly extracted for further analysis by Liquid chromatography coupled to tandem mass spectrometry (LC-MS/MS).
(§2) Tissues were homogenized with a mini-bead beater (BioSpec Products, Bartlesville, OK) in 10 volumes of acetonitrile containing 15 ng of internal standard, JM-00252. Blood samples were centrifuged at 6500× g during 10 min 4 °C and 5 µL of plasma were diluted in 10 volumes of acetonitrile containing 15 ng of internal standard. Then, each homogenate of tissue or plasma was centrifuged for 10 min at 6500× g and the supernatant was recovered and carefully transferred to new glass tubes. Finally, the extract was injected into a 1200 LC system coupled to a 6460-QqQ MS/MS system equipped with a JetStream ESI source (Agilent technologies, Les Ulis, France). Separation was achieved on a Poroshell 120 EC-C8 2.1 mm × 100 mm, 2.7 µm column (Agilent technologies) at a flow rate of 0.4 mL.min^−1, 55 °C, with a linear gradient of (solvent A) water containing 1 mM ammonium formate and 0.2% formic acid and (solvent B) methanol containing 1 mM ammonium formate and 0.2% formic acid and as follows: 50% B for 1 min, up to 100% B in 4 min, and then maintained at 100% for 2 min. The acquisition was performed in positive Single Reaction Monitoring (SRM) mode (source temperature: 300 °C, nebulizer gas flow rate was 10 L·min^−1, 15 psi, sheath gas flow 7 L·min^−1, temperature 225 °C, capillary 4000 V, nozzle 1500 V). […] Results are expressed as ng·g^−1 for tissues and ng·mL^−1 for plasma.

[5] = Tissue distribution 4 h after gavage; assay type: in vivo; conditions: mice, 4 h after gavage in oil, 10 mg·kg−1
Experimental: as §1, §2

Brain/plasma ratio (B/P) = assay type: in vivo; conditions: mice; for Effect of the administration route on distribution in brain and plasma: 10 mg·kg−1, i.p. vs oral; for Kp: mouse, brain, intraperitoneal
Experimental: as §2
Brain/plasma ratios (B/P) were determined as previously described. […] Blood and brain were collected and directly extracted for further analysis by LC-MS/MS.

murine CB1R = biological target: T1, murine CB1R (Mus musculus, UniProt P47746); assay: GloSensor cAMP functional assay in CB1R-transfected HEK293T/17 cells; assay type: cell-based
T1 construct: host or cells: HEK293T/17
Experimental: GloSensor™ cAMP assay designed by Promega (Charbonnières-les-Bains, France) was used to monitor activation of CB1R. HEK293T/17 cells obtained from the American Type Cell Culture Collection (LGC Promochem, Molsheim, France) were seeded at 30,000 cells per well on poly-D-lysine coated 96-well plates (BD Biosciences, Le Pont de Claix, France). They were grown in Dulbecco’s Modified Eagle Medium (DMEM, Waltham, MA, USA) containing 2 mM glutamax and 10% fetal bovine serum. Twenty-four hours later, cells were transiently co-transfected with 50 ng per well of pcDNA3-mouse CB1R (plasmid #13391 supplied by Addgene, Cambridge, MA, USA) which was a gift from Mary E. Abood (California Pacific Medical Center Research Institute, San Francisco, California) and pGlo™-22F cAMP plasmid-luciferase (100 ng per well) allowing these cells to produce light proportionally to intracellular CB1R-dependent cAMP level. Transfection was performed using the Fugene®HD transfection reagent (Promega) for 24 h according to the manufacturer’s instructions. Mock transfections were performed with the empty vector pcDNA3. Twenty-four hours after transfection, cells were equilibrated for 2 h with a CO2-independent medium (Gibco®, Life Technologies, Courtaboeuf, France) supplemented with the GloSensor™ cAMP reagent before adding tested compounds. When a steady-state basal signal was obtained, cells were incubated for 10 min with 1 µM forskolin (Sigma) at room temperature to enhance the intracellular basal cAMP level. Then increasing concentrations of JM-00266 (0.1 µM to 1 mM) were added in the reaction medium in the presence or absence of anandamide (0.1 µM to 1 µM) and luminescence was measured for 20 min with a Victor 3V plate reader (Perkin Elmer, Courtaboeuf, France). […] When GloSensor™ cAMP assays were carried out in the presence of 0.1 µg·mL^−1 pertussis toxin (Sigma), this compound was added in the incubation medium 24 h before incubation with forskolin. All assays were performed in duplicate and each experiment was repeated three times. Results were expressed as the percentage of forskolin-stimulated luciferase activity. The EC50 values were generated using the Sigma Plot software.

mice [6] = assay: Open field test (anxiety-related behavior); assay type: in vivo; conditions: 10 mg·kg−1 i.p. 30 min before, 10 min exploration
Experimental: Anxiety-related behavior was assessed using the open field test (OF; Mouse Open Field Arena ENV-510; Med Associates Inc., Fairfax, VT, USA). […] The two regions were defined by grid lines that divided each box into the center and periphery, with each of the four lines being 11 cm from each wall.

C57BL/6 wild type mice [7] = assay: Oral glucose tolerance test (OGTT) in wild type mice; assay type: in vivo
Experimental: (§3) To test acute effects of JM-00266 on glucose metabolism and their specificity to CB1R, C57BL/6 wild type mice and CB1R^−/− mice fasted for 6 h were subjected to an oral glucose tolerance test (OGTT, 2 g·kg^−1 glucose) and to an insulin tolerance test (ITT) using 0.5 UI·kg^−1 insulin (Actrapid, Novo Nordisk, La Défense, France) 10 min after i.p. injection of JM-00266 (10 mg·kg^−1) or vehicle. For both tests, glycemia was monitored during 120 min post-injection with a My Life Pura TM glucose meter (Ypsomed, Paris, France) directly on a blood drop from the tail. Corresponding AUC0–2 h were calculated.

C57BL/6 wild type mice [8] = assay: Insulin tolerance test (ITT); assay type: in vivo; conditions: 10 mg·kg−1 i.p. 10 min before insulin 0.5 UI·kg−1
Experimental: as §3

CB1R−/− mice = assay: Oral glucose tolerance test (OGTT) in CB1R−/− mice; assay type: in vivo; conditions: 10 mg·kg−1 i.p. 10 min before glucose gavage
Experimental: as §3

mice [9] = assay: In vivo lipolysis: plasma glycerol appearance after BRL37344; conditions: JM-00266 i.p. 4 h before BRL37344 5 mg·kg−1 i.p.
Experimental: In vivo experiments. Overnight-fasted mice were injected i.p. with JM-00266 (mg·kg^−1) or vehicle. Four hours later, mice were injected i.p. with the specific ß3-adrenergic receptor agonist, BRL37344 (5 mg·kg^−1). Blood samples (~25 µL) were collected from tails in tubes containing EDTA (Sarstedt, Nümbrecht, Germany) at times 0, 15, 30, 45 and 60 min after BRL37344 injection to measure plasma glycerol appearance using a colorimetric assay (glycerol FS, DiaSys, Condom, France).

[10] = test system: visceral adipose tissue explants; assay: In vitro lipolysis: glycerol release by adipose tissue explants from treated mice; conditions: explants from mice injected with JM-00266 10 mg·kg−1 4 h before sacrifice, 1 h culture
Experimental: In vitro experiments. Overnight-fasted mice were injected i.p. with JM-00266 (mg·kg^−1) or vehicle. Four hours later, mice were anesthetized with pentobarbital (50 mg·kg^−1) and epididymal adipose tissue was collected, rinsed in a warm medium (DMEM-HAM/F12) supplemented with 1% BSA, and dissected into ~10 mg pieces. Then, 5–6 explants were incubated in a 5% CO2 atmosphere at 37 °C under slight agitation in 1 mL of the same medium. Free glycerol in the culture medium was determined after 1 h of incubation using a colorimetric assay (glycerol FS, DiaSys).

[11] = 10 mg·kg−1, i.p. or oral, DMSO/Tween 80 aqueous solution, at maximal absorption time point

T1 sequence (P47746 whole entry): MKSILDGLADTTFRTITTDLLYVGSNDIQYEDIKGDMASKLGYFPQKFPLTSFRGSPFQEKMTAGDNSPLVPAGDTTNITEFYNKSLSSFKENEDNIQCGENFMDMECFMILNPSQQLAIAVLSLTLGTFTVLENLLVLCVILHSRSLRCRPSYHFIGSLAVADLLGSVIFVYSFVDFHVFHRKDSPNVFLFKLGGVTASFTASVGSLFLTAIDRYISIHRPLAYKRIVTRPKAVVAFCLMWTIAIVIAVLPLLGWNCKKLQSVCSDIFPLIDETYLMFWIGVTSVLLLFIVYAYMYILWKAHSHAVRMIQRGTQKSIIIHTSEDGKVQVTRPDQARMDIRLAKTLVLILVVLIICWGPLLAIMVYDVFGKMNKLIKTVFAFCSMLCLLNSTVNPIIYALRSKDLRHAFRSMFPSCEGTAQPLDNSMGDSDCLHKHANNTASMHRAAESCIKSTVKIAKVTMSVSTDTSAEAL

CCCCC/C=C\C/C=C\C/C=C\C/C=C\CCCC(=O)NCCO [anandamide, Arachidonylethanolamide, reference compound]
Effect on rectal temperature, agonist alone (mice [1]; anandamide 10 mg·kg−1): decrease in rectal temperature | Effect on gastro-intestinal transit, agonist alone (mice [2]; anandamide 10 mg·kg−1): slowing down of gastro-intestinal transit

CCCCC/C=C\C/C=C\C/C=C\C/C=C\CCCC(=O)NCCCl.O [ACEA, Arachidonyl-2′-chloroethylamide hydrate]
Cumulative 3-h food intake, agonist alone (mice [3]): no effect on food intake | Effect on rectal temperature, agonist alone (mice [1]; ACEA 1 mg·kg−1, t = 30 min): hypothermic response

CSc1ccc(C2C(N3C(=O)c4ccccc4C3=O)C(=O)N2c2ccc(SC)cc2)cc1 (stereo not shown) [JM-00266, 1,4-di-(4-méthylthiophenyl)-3-phthaloylazetidin-2-one]
Plasma clearance compared with Rimonabant ([4]; intravenous administration): slightly higher clearance | Time of peak drug plasma concentration ([4]; mice, i.p. 10 mg·kg−1, DMSO/Tween solution): 30 min | Maximal drug plasma concentration ([4]; mice, i.p. 10 mg·kg−1, mean ± SEM): 378 ± 27 ng/mL | Time of peak drug plasma concentration ([4]; mice, oral 10 mg·kg−1, dissolved in oil): 60 min | Maximal drug plasma concentration ([4]; mice, oral 10 mg·kg−1, mean ± SEM): 203 ± 18 ng/mL | Concentrations in plasma and tissues compared with Rimonabant [5]: lower concentrations in plasma and tissues than Rimonabant | Tissue distribution (plasma, brain, liver, visceral adipose tissue) [5]: preferentially accumulated in the liver and the adipose tissue whereas brain concentration remained very low | Brain/plasma ratio (B/P) (Brain/plasma ratio (B/P); [11]): significantly lower | Effect of the administration route on distribution in brain and plasma (Brain/plasma ratio (B/P)): not modified | Kp (Brain/plasma ratio (B/P); [11]): 0.3 to 0.5 | Effect on cAMP formation, compound alone (murine CB1R; HEK293T/17 cells transfected with murine CB1R, 0.1 µM to 1 mM): dose-dependent increase in cAMP formation | EC50 (murine CB1R; HEK293T/17 cells transfected with murine CB1R, forskolin 1 µM, GloSensor luminescence, read-out: EC50, increase in cAMP formation (inverse agonism)): 249 µM | cAMP response with increasing concentrations of anandamide (murine CB1R; anandamide 0.1 µM to 1 µM): lost | cAMP response in the presence of pertussis toxin (murine CB1R; pertussis toxin 0.1 µg·mL−1 added 24 h before): lost | Cumulative 3-h food intake, co-administration with ACEA (mice [3]): not observed | Effect on anandamide-induced decrease in rectal temperature (mice [1]; JM-00266 20 mg·kg−1 20 min before anandamide 10 mg·kg−1, 30 min recording): not able to counteract the decrease in rectal temperature | Effect on hypothermic response to ACEA (mice [1]): had no effect | Open field: locomotor activity (total ambulatory distance) (mice [6]): did not alter | Open field: number of center entries (mice [6]): did not alter | Open field: time spent in the center (mice [6]): did not alter | Effect on anandamide-induced slowing down of gastro-intestinal transit (mice [2]; JM-00266 10 mg·kg−1 10 min before anandamide 10 mg·kg−1): abrogated | Plasma insulin levels during OGTT (C57BL/6 wild type mice [7]; 10 mg·kg−1 i.p.): lower than vehicle | Glucose tolerance (OGTT) vs vehicle (C57BL/6 wild type mice [7]; 10 mg·kg−1 i.p. 10 min before glucose gavage 2 g·kg−1): improved glucose tolerance | Glycemia during ITT (insulin sensitivity) (C57BL/6 wild type mice [8]): lower glycemia over time compared to vehicle treated mice | Glucose tolerance (OGTT) vs vehicle (CB1R−/− mice): failed to improve glucose tolerance | ß-adrenergic-induced glycerol production (plasma glycerol) vs vehicle (mice [9]): increased | Glycerol release by visceral adipose tissue explants vs control [10]: higher than in the control

Cc1c(C(=O)NN2CCCCC2)nn(-c2ccc(Cl)cc2Cl)c1-c1ccc(Cl)cc1 [Rimonabant, reference compound]
Bioavailability compared with JM-00266, whatever the administration route ([4]; mice, 10 mg·kg−1, i.p. or oral): far higher | Tissue distribution (plasma, brain, liver, visceral adipose tissue) [5]: preferentially accumulated in the liver and the adipose tissue whereas brain concentration remained very low | Effect of the administration route on distribution in brain and plasma (Brain/plasma ratio (B/P)): strongly affected | Kp (Brain/plasma ratio (B/P); [11]): > 1 | Cumulative 3-h food intake, co-administration with ACEA (mice [3]): strong hypophagia | Effect on hypothermic response to ACEA (mice [1]): fully inhibited the hypothermic response | Open field: locomotor activity (total ambulatory distance) (mice [6]): did not significantly alter | Open field: number of center entries (mice [6]): did not significantly alter | Open field: time spent in the center (mice [6]): significantly decreased
